Experiment [1] has as its target T1, Substance-K receptor (Homo sapiens, UniProt P21452).
T1 sequence (P21452 whole entry): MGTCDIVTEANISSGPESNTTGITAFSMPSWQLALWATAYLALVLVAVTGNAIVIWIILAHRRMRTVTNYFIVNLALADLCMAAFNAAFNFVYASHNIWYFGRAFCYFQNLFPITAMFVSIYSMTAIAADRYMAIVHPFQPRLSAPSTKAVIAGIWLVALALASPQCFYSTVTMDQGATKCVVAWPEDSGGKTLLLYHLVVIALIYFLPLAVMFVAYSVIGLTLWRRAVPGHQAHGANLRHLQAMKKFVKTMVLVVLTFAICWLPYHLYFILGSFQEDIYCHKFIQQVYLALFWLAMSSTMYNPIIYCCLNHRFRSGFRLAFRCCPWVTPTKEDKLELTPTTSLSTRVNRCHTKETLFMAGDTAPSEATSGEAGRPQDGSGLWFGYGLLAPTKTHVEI

Experiment [2] addresses T2, Substance-K receptor (Mesocricetus auratus, UniProt P51144).
T2 sequence (P51144 whole entry): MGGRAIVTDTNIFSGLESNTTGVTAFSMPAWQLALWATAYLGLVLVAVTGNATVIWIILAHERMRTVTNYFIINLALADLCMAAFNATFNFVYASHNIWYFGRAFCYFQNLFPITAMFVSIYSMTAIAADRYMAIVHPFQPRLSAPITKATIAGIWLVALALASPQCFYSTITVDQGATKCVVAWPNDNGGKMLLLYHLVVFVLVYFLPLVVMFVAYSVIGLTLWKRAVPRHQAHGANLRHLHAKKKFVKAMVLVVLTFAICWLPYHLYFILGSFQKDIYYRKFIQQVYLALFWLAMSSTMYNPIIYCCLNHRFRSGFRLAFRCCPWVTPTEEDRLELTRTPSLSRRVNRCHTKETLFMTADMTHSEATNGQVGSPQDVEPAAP

The next experiment addresses Substance-P receptor (Cavia porcellus, UniProt P30547).

The values that follow come from BindingDB's records for PubMed 7562491 (Zeneca Pharmaceuticals, 1995).

SMILES strings stand for the structures. Values joined by “and” are separate entries in the source; they are usually repeats but may differ in a detail not shown here. Equal entries are not always repeated.

Chain of Substance-P receptor (P30547 whole entry): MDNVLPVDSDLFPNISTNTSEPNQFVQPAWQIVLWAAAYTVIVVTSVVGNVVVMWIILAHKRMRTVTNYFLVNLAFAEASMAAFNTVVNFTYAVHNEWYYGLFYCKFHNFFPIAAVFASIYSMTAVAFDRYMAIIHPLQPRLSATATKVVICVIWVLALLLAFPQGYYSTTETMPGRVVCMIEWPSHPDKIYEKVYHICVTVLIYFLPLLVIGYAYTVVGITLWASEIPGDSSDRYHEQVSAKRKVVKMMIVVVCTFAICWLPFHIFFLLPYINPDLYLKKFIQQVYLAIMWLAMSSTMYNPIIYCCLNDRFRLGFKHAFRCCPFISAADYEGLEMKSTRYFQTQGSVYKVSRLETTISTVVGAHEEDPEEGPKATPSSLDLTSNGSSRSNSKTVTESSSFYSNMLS

`O=C1c2nc(N3CCOCC3)nc(Nc3ccc(Cl)cc3)c2CN1CCN1CCOCC1` [COMPOUND II]: the Ki at Substance-K receptor [1] is 187 nM; at Substance-K receptor [2], 41 nM and 39 nM.
For the compound `CC(N=O)C(=O)N1CCN(c2nc(Nc3ccc(Cl)cc3)c3c(n2)C(=O)N(C(C)C)C3)CC1` (configuration not stated) [ZM253,270], the Ki at Substance-P receptor was 9.77 µM; at Substance-K receptor [1], 105 nM; at Substance-K receptor [2], 2.2 nM and 2 nM.
With `CC(C)N1Cc2c(Nc3ccc(Cl)cc3)nc(N3CCN(C(=O)Cc4[nH]c(=O)[nH]c4O)CC3)nc2C1=O` [COMPOUND I], the Ki at Substance-K receptor [1] is 188 nM; on Substance-K receptor [2], 18 nM and 17 nM.
